According to patent US20200121699A1, “COMBINATION THERAPIES COMPRISING IMMUNO-ONCOLOGY AGENTS AND BELINOSTAT” (ONXEO, priority 2016, published 2020):

Columns and labels:
[1] = test system: Hepa129 murine hepatocellular carcinoma cells; assay: Antitumor efficacy in subcutaneous Hepa129 hepatocellular carcinoma mouse model; format: in vivo, C3H mice; conditions: s.c. Hepa129 tumors, Beleodaq 90 mg/kg IP daily D7 to D27, antibodies 50 μg/mouse IP D7, D14
Procedure: As tumor model, Hepa129 murine hepatocellular carcinoma cells implanted subcutaneously in C3H mice were used. Hepa129 cells were maintained in culture up to 3 passages before injection in mice. Cells were sub-cultured three days before the day of injection.
The day of cell injection, Hepa129 cells were harvested and centrifuged at 1800 rpm for 5 min, and resuspended in PBS. Cells were counted in 0.04% Trypan Blue for viability quantification. Cells were resuspended in the adequate volume of PBS in order to have 10^6 cells in 100 μL. […] were subcutaneously injected into the right flank of mice.
When subcutaneous Hepa129 tumors reached a mean tumor diameter of about 5 mm (day 7), mice were allocated to treatment groups and identified individually by ear tags. Beleodaq® was administered IP daily at days 7 to 27 at 90 mg/kg. Antibodies Isotype control (2A3) and anti-CTLA-4 (9D9) (from BioXcell) were administered IP at days 7 and 14.
Treatment allocation were performed as follows for antitumor efficacy study:
Animals were monitored and sacrificed when tumor diameter reached 17 mm. Each experiment was carried out twice with n=8 animals per group.

[2] = test system: irradiated Hepa129 tumor cells; assay: IFN-gamma ELISPOT of spleen cells from treated tumor-bearing mice stimulated with irradiated tumor cells; format: in vivo, C3H mice; conditions: 20-h ELISPOT, two-week treatment, versus the same antibody without Beleodaq
Procedure: Treatment allocation were performed as follows for immune characterization study:
A single experiment was carried out for each drug, using n=5 animals per group.
Lymphoid organs (spleen, lymph nodes) were obtained from sacrificed animals, homogenized and cell suspensions were used to measure the following parameters:
ELISPOT: measuring the number of IFN-gamma spot forming cells after co-culture of lymphocytes with irradiated Hepa129 tumor cells.
Tumor-bearing mice were treated during two weeks and sacrificed to obtain their spleen and analyze immune-related parameters. For these experiments mice received two antibody administrations (days 0 and 7) and Beleodaq® (daily) during the two-week treatment period.
Functional assays: Spleen cells were stimulated with irradiated tumor cells to analyze antitumor T cell responses measured as IFN-gamma production using a 20-h ELISPOT assay.

[3] = test system: 4T1 breast cancer cells; assay: Orthotopic 4T1 breast cancer mouse model; format: in vivo, Balb/C mouse; conditions: 4T1 in mammary fat gland; belinostat 80 mg/kg i.p. daily from day 8; antibodies 200 μg/mouse i.p.
Procedure: The Belinostat treatment was formulated every one or two day.
The aPD1 treatment solutions were prepared on the days of the treatment (days 8, 12, 16 and 20).
The aCTLA4 treatment solutions were prepared on days 7, 11, 16 and 20 and stored at 4° C.
4T1 breast cancer cells (5*10^5 cells per Balb/C mouse) were in occulated in the mammary fat gland of Balb/C females. The 4T1 (ATCC CRL-2539) cells were bought from ATCC and cultured in RPMI-1640 Medium containing 10% fetal bovine serum. Cells were passaged 5-10 times before in inoculation. Cells were detached with trypsin, washed twice in PBS, centrifuged and resuspended in PBS. Cell viability was checked by a staining with […] and cells were used when viability was higher than 95%. Cells were counted manually and adjusted to 5*10^6 cells per ml. Finally 100 μl were injected.

O=C(/C=C/c1cccc(S(=O)(=O)Nc2ccccc2)c1)NO [Beleodaq®, (2E)-N-hydroxy-3-[3-(phenylsulfamoyl)phenyl]prop-2-enamide] was tested, and the tumor growth [1] was “did not modify”, the animal survival ([1]; sacrificed when tumor diameter reached 17 mm) was “did not modify” and the “antitumor T cell responses measured as IFN-gamma production” value [2] was “no significant differences”. The “apparent external tumor size” value [3] was “reduced” and the mortality [3] was “reduced”.
